These results are taken from patent publication US20080020014A1, “Implantable devices containing nuclear receptor ligands for the treatment of vascular and related disorders” (priority 2006, published 2008).

For one data set, the system named is PPARs. The conditions noted are these: cited from earlier work.
Data set [1] deals with rat carotid arteries. The conditions noted are these: balloon-denuded rat carotid arteries; cited from earlier work.
Data set [2] in a line: Drug-release rate of Example 3 stents in phosphate-buffered saline with 1 mass % sodium dodecyl sulfate, pH 7.4, 37° C., HPLC. Format: physicochemical. Here is the method:
A drug-polymer layer comprising 17-β estradiol was applied onto a stent in the following manner. A first composition was prepared by mixing the following components: • (a) about 2.0 mass % of EVAL; and • (b) the balance, a mixture of solvents, DMAC and ethanol, in a ratio of DMAC to ethanol of about 70:30 by mass.
The first composition was applied onto the surface of a bare 13 mm TETRA stent (available from Abbott Vascular Corp.) by spraying and dried to form a primer layer. A spray coater having an EFD 7803 spray valve with 0.014 inch fan nozzle with a VALVEMATE 7040 control system (manufactured by EFD Inc. of East Providence, R.I) was used. The fan nozzel was maintained at about 60° C. with a feed pressure of about 0.2 atm (about 3 psi) and an atomization pressure of about 1.35 atm (about 20 psi). An average of about 19 micrograms (μg) per coating pass was applied and an average total of about 62 μg of the wet coating was applied.
The primer layer was baked at about 140° C. for about one hour, yielding a layer with an average total amount of solids of about 61 μg, corresponding to an average thickness on the stent of 0.65 μm. “Solids” means the amount of dry residue deposited on the stent after all volatile organic compounds (e.g., the solvent) have been removed.
A second composition was prepared by mixing the following components: • (a) about 2.0 mass % of EVAL; • (b) about 0.7 mass % 17-β estradiol; and • (c) the balance, a mixture of solvents, DMAC and ethanol, in a ratio of DMAC to ethanol of about 70:30 by mass.
The second composition was applied onto the dried primer layer to form a drug-polymer polymer layer using the same spraying technique and equipment used for the primer layer. […] of the wet coating was applied, followed by drying at about 50° C. for about 2 hours. The total amount of solids of the drug-polymer layer was about 494 μg, corresponding to an average thickness on the stent of about 5.3 μm.
A third, topcoat composition was prepared by mixing the following components: • (a) about 1.2 g of a 10 mass % solution of KYNAR-FLEX 2800 in acetone; • (b) about 1.89 g of additional acetone; • (c) about 5.94 g of cyclohexanone; and • (d) about 2.97 g of AMS FLUX REMOVER.
The topcoat composition was applied by spraying using an EFD 7803 spray valve with 0.014 inch fan nozzle to form a topcoat layer, followed by drying. The nozzle temperature was at ambient temperature with a feed pressure of about 0.2 atm (3 psi) and an atomization pressure of about 1 atm (15 psi). The dryer temperature was at ambient temperature with a dryer air pressure of about 2.7 atm (40 psi). An average of about 5 μg per coating pass was applied and an average total of about 60 μg of wet coating was applied. The topcoat layer was baked at about 50° C. for two hours, yielding a total amount of solids of about 55 μg, corresponding to a thickness of about 0.38 μm.
Three stents coated according to this example were tested for their drug-release rate. The stents were immersed in individual, stirred vessels containing a phosphate-buffered saline solution that included about 1 mass % of sodium dodecyl sulfate. […] The amount of 17-β estradiol released was determined at measured intervals of time by HPLC. […] There was an initial small burst of 17-β estradiol during the first 20 hours, after which the release rate became approximately linear. Specifically, about 18% of 17-β estradiol was released after 10 hr, 25% after 20 hr, 30% after 30 hr, 35% after 40 hr, 40% after 50 hr, 43% after 60 hr, and 45% after 70 hr.

A further data set relates to atherosclerosis. The conditions noted are these: through liver X receptors (LXR); cited from earlier work.
Data set [3] deals with collagenase gene expression at AP-1 binding sites. The following applies: cited from earlier work.
Data set [4] concerns rat carotid arteries. The following applies: after balloon injury to rat carotid arteries; cited from earlier work.
The subject of data set [5] is vascular smooth muscle cell. The following applies: cited from earlier work.
The subject of a further data set is rabbit femoral arteries. The conditions noted are these: 28 days after angioplasty; cited from earlier work.
For data set [6] the following is noted: in blood; may not happen in tissue; listed as Tazarotene; cited from earlier work.
The test system of data set [7] is retinoic acid receptors (RARs). The following applies: cited from earlier work.

As for “9-(R/S) hydroxyoctadecadienoic acid [9-(R/S) HODE]”, the PPAR subtypes activated entry in the data set on PPARs was “γ”.
`CCCCC[C@H](O)/C=C/C=C\CCCCCCCC(=O)O` (racemic) [13-(R/S) HODE]: the PPAR subtypes activated result in the data set with PPARs is given as “γ”.
Regarding `CCCCCCCCCCCCCCC(Br)C(=O)O` (stereo not shown) [2-bromopalmitate], in the data set on PPARs, the PPAR subtypes activated entry is reported as “α, δ”.
For the compound `CCCCC/C=C\C/C=C\C=C\[C@H](O)C/C=C\CCCC(=O)O` [8-(R) HETE, 8-(R)-hydroxyeicosatetaenoic acid], the PPAR subtypes activated entry in the data set on PPARs was “α, γ”.
With `CCCCC/C=C\C/C=C\C=C\[C@@H](O)C/C=C\CCCC(=O)O` [8-(S) HETE], the PPAR subtypes activated result with PPARs is “α, γ”.
For `CCC=CCC=CCC=CC=CC(O)CC=CCCCC(=O)O` (stereo not shown) [8-HEPE, 8-hydroxyeicosapentaenoic acid], the PPAR subtypes activated result in the data set on PPARs is recorded as “α”.
For the compound `CCCCCC=CC=CC(=O)CCCCCCCC(=O)O` [9-oxo ODE, 9-oxo octadecadienoic acid], the PPAR subtypes activated result in the data set on PPARs is “γ”.
Turning to `CCCCC/C=C\C[C@H](O)/C=C/C=C\C/C=C\CCCC(=O)O` [12-HETE], in the data set on PPARs, the PPAR subtypes activated result is on record as “α”.
Turning to `CCCCC[C@@H](/C=C/C=C\CCCCCCCC(=O)O)OO` [13-(S) HpODE, 13-(S) hydroperoxyoctadecadienoic acid], the PPAR subtypes activated entry in the data set with PPARs was “γ”.
Turning to `CC1=C(/C=C/C(C)=C/C=C/C(C)=C\C(=O)O)C(C)(C)CCC1` [13-cis retinoic acid], in the data set with rat carotid arteries [1], the intimal thickening entry is “suppressed” and the vessel remodeling result was “increased”.
For `CCCCCC(=O)/C=C/C=C\CCCCCCCC(=O)O` [13-oxo ODE], the PPAR subtypes activated entry with PPARs is given as “γ”.
Consider `CCCCC[C@H](O)/C=C/C=C\C/C=C\C/C=C\CCCC(=O)O` [15-HETE], for which the PPAR subtypes activated result in the data set on PPARs was “γ”.
For the compound `CCCCC/C=C/C=C1/C(=O)C=C[C@@H]1C/C=C\CCCC(=O)O` [15d-PGJ2, 15-deoxy-Δ^12,14-PGJ2], in the data set with PPARs, the PPAR subtypes activated result is listed as “α, δ, γ”.
For `C[C@]12CC[C@@H]3c4ccc(O)cc4CC[C@H]3[C@@H]1CC[C@@H]2O` [17-β estradiol], the 17-β estradiol released entry in data set [2] (after 10 hr, EVAL drug-polymer layer, KYNAR-FLEX 2800 topcoat) was “about 18%”; in data set [2] (after 20 hr), ~25%; in [2] (after 30 hr), ~30%; in data set [2] (after 40 hr), ~35%; in [2] (after 50 hr), ~40%; in data set [2] (after 60 hr), ~43%. Also, the 17-β estradiol released in data set [2] (after 70 hr) is recorded as ~45%.
Consider `CCCCCC#CCC#CCC#CCC#CCCCC(=O)O` [ETYA, eicosatetraynoic acid], for which the PPAR subtypes activated result with PPARs is on record as “α”.
Take `CC(C)(Sc1ccc(CCN(CCCCC2CCCCC2)C(=O)NC2CCCCC2)cc1)C(=O)O` [GW-7647]: the PPAR subtypes activated result in the data set with PPARs was “α”. Further, the “atherosclerosis and formation of microphage-forming cells” value in the data set with atherosclerosis is reported as “inhibited”.
As to `CCCCC/C=C\C[C@@H](O)/C=C/C=C/C=C\[C@@H](O)CCCC(=O)O` [LTB4], the PPAR subtypes activated entry in the data set with PPARs is recorded as “α”.
As for `CCCCC[C@H](O)/C=C/C1=C(C/C=C\CCCC(=O)O)C(=O)CC1` [PGB2], the PPAR subtypes activated result in the data set on PPARs is reported as “α, δ, γ”.
Regarding `CCCCC[C@H](O)/C=C/[C@H]1C(=O)C=C[C@@H]1C/C=C\CCCC(=O)O` [PGJ2, prostaglandin J2], the PPAR subtypes activated entry in the data set on PPARs is “α, δ, γ”.
For `CCC/C=C/C/C=C/C=C/C=N/NN=O` [Triacsin C], in the data set on PPARs, the PPAR subtypes activated result is “α”.
With `Cc1cccc(Nc2cc(Cl)nc(SCC(=O)O)n2)c1C` [WY-14643], the PPAR subtypes activated entry in the data set on PPARs is reported as “α, δ, γ”.
Turning to `CC1=C(/C=C/C(C)=C/C=C/C(C)=C/C(=O)O)C(C)(C)CCC1` [all-trans retinoic acid], the “collagenase gene expression at AP-1 binding sites” value in data set [3] is “inhibited”. Besides, in the data set with rat carotid arteries [1], the intimal thickening result was “suppressed” and the vessel remodeling result is reported as “increased”. Moreover, in the data set with rat carotid arteries [4], the favorable geometric remodeling entry is reported as “promoted” and the neointimal formation entry is listed as “reduced”. For the same compound, the “vascular smooth muscle cell proliferation” value in data set [5] was “inhibited”.
In the case of `CCCCC/C=C\C/C=C\C/C=C\C/C=C\CCCC(=O)O` [arachidonic acid], the PPAR subtypes activated entry in the data set with PPARs is “α, δ, γ”.
Regarding `CC/C=C\C/C=C\C/C=C\C/C=C\C/C=C\C/C=C\CCC(=O)O` [docahexanoic acid], the PPAR subtypes activated entry with PPARs is given as “α, δ, γ”.
Turning to `CCCCC/C=C\C/C=C\CCCCCCCC(=O)O` [linoleic acid], the PPAR subtypes activated result in the data set on PPARs was “α, δ”.
On to `CCCCCCCCCSCC(=O)O` [nonythioacetic acid], for which the PPAR subtypes activated entry in the data set with PPARs was “α”.
Take `CCCCC[C@H](O)/C=C/[C@@H]1[C@H]2C/C(=C/CCCC(=O)O)O[C@H]2C[C@H]1O` [prostacyclin (PGI2), prostacyclin]: the PPAR subtypes activated result in the data set on PPARs is given as “α, δ, γ”.
Regarding `CC1=C(/C=C/C(C)=C/C=C/C(C)=C/CO)C(C)(C)CCC1` [retinol], in the data set on rabbit femoral arteries, the “internal and external elastic lamina” value is recorded as “larger”.
For the compound `CCOC(=O)c1ccc(C#Cc2ccc3c(c2)C(C)(C)CCS3)nc1` [tazarotene], the “Pharmacokinetics: de-esterification / metabolism to tazarotenic acid” value in [6] is “rapidly metabolized to tazarotenic acid”. The Receptor specificity result in data set [7] was “specific for retinoic acid receptors (RARs)”.
In the case of `CCCCCCCCCCCCCCC1(C(=O)O)CO1` (stereo not shown) [tetradecylglycidic acid], the PPAR subtypes activated entry with PPARs is reported as “α, δ”.
`CCCCCCCCCCCCCCSCC(=O)O` [tetradecythioacetate]: the PPAR subtypes activated entry with PPARs is “α”.
Take clofibrates: in the data set on PPARs, the PPAR subtypes activated entry is on record as “α, δ, γ”.
